Data reported in article PMC4506092, “Utilizing Chemical Genomics to Identify Cytochrome b as a Novel Drug Target for Chagas Disease” (PLoS Pathogens, 2015).
Read-outs that look alike come from different tables or passages of the source.

Assays:
[1] = tested on: S. cerevisiae strain NF7061; assay: S. cerevisiae susceptibility assay, YPD (dextrose) medium; assay type: cell-based, Saccharomyces cerevisiae; details: 24 hours
Protocol: The minimal inhibitory concentrations (MIC) of the compounds for inhibition of S. cerevisiae drug pump knock-out strain NF7061 (MATa his3Δ 1; leu2Δ 0; met15Δ 0; ura3Δ 0; snq2::KanMX; pdr5::KanMX; pdr1::NAT1; pdr3::KanMX; yap1::NAT1; pdr2::LEU2; yrm1::MET; yor1::LYS2) were determined by a modification of the microdilution technique described elsewhere. Briefly, two-fold dilutions of the compound solution in DMSO were made. They were added to each well of 96-well assay plate containing 200 μL per well of either YPD (1% Difco Yeast Extract, 2% Difco Bacto Peptone and 2% Dextrose) or YPG (3% of glycerol in replacement of 2% Dextrose in YP) medium. Early stationary yeast NF7061 cells grown in either medium were collected and resuspended to 2 × 10^5 cells / mL. Ten microliters of the yeast cell suspension were inoculated to each well of the plates containing medium and compound to achieve a final inoculum of approximately 10^4 CFU / mL. The plates were incubated at 30°C for 24 hours (containing YPD) or 48 hours (containing YPG).

[2] = tested on: T. cruzi trypomastigotes (GNF7686-resistant, DR); assay: T. cruzi trypomastigote viability assay (CellTiter-Glo), GNF7686-resistant; assay type: cell-based, Trypanosoma cruzi; details: for EC50: GNF7686-resistant T. cruzi, 48-hour incubation
Protocol: To assess compound efficacy on trypomastigotes, parasites (30 μL; 2 × 10^6 trypomastigotes / mL) were added to 384-well plates containing 10 μL of RPMI-1640 without phenol red (Invitrogen) and supplemented with 10% FBS and 100 IU penicillin / 100 µg streptomycin per mL, and then treated with compounds (0.2% DMSO final concentration). Following a 48-hour incubation period, viability was assessed using the CellTiter-Glo Luminescent Cell Viability Assay (Promega).

[3] = tested on: L. donovani axenic amastigotes; assay: Leishmania donovani axenic amastigote in vitro efficacy assay; assay type: cell-based; details: 48 hours
Protocol: Leishmania donovani (L. donovani) axenic amastigotes (strain MHOM/SD/62/1S-CL2D) were maintained at 37°C / 5% CO2 in RPMI-1640 medium containing 4 mM L-glutamine, 20% heat inactivated FBS, 100 IU penicillin / 100 μg streptomycin per mL, 23 μM folic acid, 100 µM adenosine, 22 mM D-glucose, and 25 mM 2-(N-morpholino)ethanesulfonic acid (pH 5.5 adjusted at 37°C using 1M HCl).
For compound screening, axenic amastigotes were seeded into 384-well plates containing axenic amastigote medium with pre-dispensed compounds (0.25% final DMSO concentration) at a density of 9,600 cells / well. Plates were incubated for 48 hours at 37°C / 5% CO2. Cell viability was assessed using the CellTiter-Glo Luminescent Cell Viability Assay (Promega).

[4] = tested on: P. falciparum yDHODH-D10attB; assay: P. falciparum SYBR Green proliferation assay, yDHODH-D10attB line; assay type: cell-based, Plasmodium falciparum
Protocol: GNF7686 and cytochrome b inhibitors were assayed for activity on two Plasmodium falciparum (P. falciparum) lines: D10attB and yDHODH-D10attB. The D10attB line is reliant on the coenzyme Q-dependent malarial dihydroorotate dehydrogenase (PfDHODH), whereas the yDHODH-D10attB line expresses also the fumarate-utilizing Saccharomyces cerevisiae (S. cerevisiae) DHODH, which circumvents reliance on PfDHODH and renders this line fully resistant to cytochrome b inhibitors. The use of these two lines allows for distinction of selection of potent cytochrome b inhibitors as described in detail in the Results section. Growth and viability of P. falciparum cell lines (in the presence or absence of drug) in infected erythrocytes were assessed using a SYBR Green-based proliferation assay exactly as described previously.

[5] = tested on: T. b. brucei bloodstream form; assay: T. b. brucei bloodstream form in vitro efficacy assay; assay type: cell-based, Trypanosoma brucei brucei; details: 48 hours, read-out: T. b. Brucei EC50, BSF
Protocol: Trypanosoma brucei brucei (T. b. brucei) bloodstream form (strain Lister 427) was maintained in HMI-9 medium: IMDM (Iscove's Modified Dulbecco's Media), 10% heat-inactivated FBS, 10% Serum Plus medium supplement (SAFC biosciences), 1 mM hypoxanthine, 50 μM bathocuproine disulfonate.Na2, 1.5 mM cysteine, 1 mM pyruvate, 39 μg/mL thymidine, and 0.2 mM 2-mercapthoethanol) at 37°C / 5% CO2.
For compound screening, parasites were seeded into 384-well assay plates containing HMI-9 with pre-dispensed compounds (0.25% final DMSO concentration) at a density of 6,000 cells / well, and plates were then incubated for 48 hours at 37°C / 5% CO2. Cell viability was assessed using the CellTiter-Glo Luminescent Cell Viability Assay (Promega).

[6] = Saccharomyces cerevisiae, NF7061, MIC visual growth inhibition screen
[7] = Plasmodium falciparum; read-out: P. falciparum EC50, yDHODH-D10attB

CCCCCC[C@H]1C(=O)O[C@H](C)[C@H](NC(=O)c2cccc(NC=O)c2O)C(=O)O[C@@H](C)[C@@H]1OC(=O)CC(C)C [Antimycin A]
EC50 [1, 6]: 5 µM
Shift of trypomastigote potency, mutant vs wild-type [2]: 20 fold
EC50 ([2]; Trypanosoma cruzi): 4.3 ± 1.3 µM
EC50 ([3]; Leishmania donovani): 0.01 ± 0.004 µM
EC50 ([4]; Plasmodium falciparum, read-out: P. falciparum EC50, yDHODH-D10attB): > 12.5 µM
EC50 ([5]; Trypanosoma brucei): > 25 µM

O=C(Cn1ccnc1[N+](=O)[O-])NCc1ccccc1 [Benznidazole]
EC50 [1, 6]: > 40 µM
EC50 ([2]; Trypanosoma cruzi): 11 ± 0.58 µM
EC50 ([3]; Leishmania donovani): > 25 µM
EC50 [4, 7]: > 12.5 µM
EC50 ([5]; Trypanosoma brucei): > 25 µM

CCc1c(C)c(C#N)c2nc3ccccc3n2c1O [GNF7686]
EC50 [1, 6]: > 40 µM
EC50 ([2]; Trypanosoma cruzi): 4.5 ± 0.84 µM
EC50 ([3]; Leishmania donovani): 0.46 ± 0.28 µM
EC50 [4, 7]: > 12.5 µM
EC50 ([5]; Trypanosoma brucei): > 25 µM

CO/C(=C/C(N)=O)[C@H](C)[C@H](/C=C/c1csc(-c2csc([C@@H](C)/C=C/C=C/C(C)C)n2)n1)OC [Myxothiazol]
EC50 ([1]; MIC visual growth inhibition screen): 30 ± 10 µM
EC50 [2]: 2.9 ± 0.43 µM
EC50 [3]: 9.6 ± 3.9 µM
EC50 ([4]; read-out: P. falciparum EC50, yDHODH-D10attB): 8.4 ± 1.6 µM
EC50 [5]: 17.2 ± 3.1 µM

CO\C=C(C(=O)OC)/C(C)=C\C=C\c1ccccc1 [Strobilurin]
EC50 [1, 6]: > 40 µM
EC50 ([2]; Trypanosoma cruzi): 1.4 ± 0.36 µM
EC50 ([3]; Leishmania donovani): 9.1 ± 2.5 µM
EC50 [4, 7]: > 12.5 µM
EC50 ([5]; Trypanosoma brucei): > 25 µM
